Earlier results in paper PMC4682187, “Fusarinine C, a novel siderophore‐based bifunctional chelator for radiolabeling with Gallium‐68” (Journal of Labelled Compounds & Radiopharmaceuticals, 2015).

Key:
[1] = dilution of DFO; at nanomolar level (<50 nM) DFO does not act as a good chelating agent for gallium
Excerpt: Caraco et al. reported that dilution of DFO, an acyclic analogue of FSC, could cause the breakdown of the ^67Ga^3+–DFO complex.

[2] = ^68Ga complex of TAFC
Excerpt: To evaluate this hypothesis, a RGD peptide targeting the ...

| Structure (SMILES) | Stability of the complex on dilution [1] | Metabolic stability [2] |
| --- | --- | --- |
| CC(=O)N(O)CCCCCNC(=O)CCC(=O)N(O)CCCCCNC(=O)CCC(=O)N(O)CCCCCN [^67Ga^3+–DFO complex, desferoxamine B, metal not drawn] | breakdown | – |
| CC(=O)NC1CCCN(O)C(=O)/C=C(/C)CCOC(=O)C(NC(C)=O)CCCN(O)C(=O)/C=C(/C)CCOC(=O)C(NC(C)=O)CCCN(O)C(=O)/C=C(/C)CCOC1=O (centres unmarked) [TAFC, triacetylfusarinine] | – | excellent metabolic stabilities |
